Measurements from publication PMC12615753, “Glutathione as a taste modulator: molecular mechanisms of interaction with umami and sweet taste receptors” (Food Chemistry: Molecular Sciences, 2025).

Experiments:
hTAS1R1 D192E/rTAS1R3 = target: T1, hTAS1R1 D192E/rTAS1R3 (UniProt Q7RTX1+Q923K1, D192E); experiment: cell-based; design: species or system human, rat
T1 construct: The cDNA coding region of rTAS1R3 was synthesized with optimized-codon usage for human expression; expressed in transfected cells; host or cells: HEK293T/17
Source text: Chimeric Gα proteins, such as Gα16Gust44, Gα16Gi3 or Gα15i2, are widely used in the functional expression of TAS1R receptors ([Backes et al., 2015]; [Suess et al., 2015]; [Toda et al., 2021], [Toda et al., 2013], [Toda et al., 2018]; [Zhang et al., 2008]). Chimeric Gα15i2 (([Toda et al., 2013]), Supplementary data) was generated by replacing the last five residues of the C-terminal tail of rat Gα15i2 (EINLL) (UniProt number G3V6N8; https://www.uniprot.org/uniprot/) with the counterpart sequence from human GNAI2 (DCGLF) (UniProt number P04899-1) and cloning into the pcDNA3.1/Hygro vector (Invitrogen, Thermo Fisher Scientific, Illkirch, France) between the HindIII and NotI restriction sites, resulting in the plasmid pcDNA3.1-Gα15i2. Chimeric Gα16Gust44 construct have already been reported ([Raliou et al., 2011]). Briefly, Gα16Gust44 was generated by replacing the C-terminal of Gα16 with the C-terminal 44 residues of gustducin. As previously described, hTAS1R1 was amplified from human fungiform papillae cDNA and cloned and inserted into pcDNA3 (Invitrogen), generating pcDNA3-TAS1R1-WT (wild-type) ([Raliou et al., 2011]). […]

hTAS1R1 Q278A/rTAS1R3 = target: T2, hTAS1R1 Q278A/rTAS1R3 (Homo sapiens, UniProt Q7RTX1, Q278A); experiment: Calcium assay, hTAS1R1 mutant co-expressed with rTAS1R3; format: cell-based, rat
T2 construct: expressed in transfected cells; host or cells: HEK293T/17 (ATCC CRL-11268)
T2 sequence (Q7RTX1 21-841 Q278A): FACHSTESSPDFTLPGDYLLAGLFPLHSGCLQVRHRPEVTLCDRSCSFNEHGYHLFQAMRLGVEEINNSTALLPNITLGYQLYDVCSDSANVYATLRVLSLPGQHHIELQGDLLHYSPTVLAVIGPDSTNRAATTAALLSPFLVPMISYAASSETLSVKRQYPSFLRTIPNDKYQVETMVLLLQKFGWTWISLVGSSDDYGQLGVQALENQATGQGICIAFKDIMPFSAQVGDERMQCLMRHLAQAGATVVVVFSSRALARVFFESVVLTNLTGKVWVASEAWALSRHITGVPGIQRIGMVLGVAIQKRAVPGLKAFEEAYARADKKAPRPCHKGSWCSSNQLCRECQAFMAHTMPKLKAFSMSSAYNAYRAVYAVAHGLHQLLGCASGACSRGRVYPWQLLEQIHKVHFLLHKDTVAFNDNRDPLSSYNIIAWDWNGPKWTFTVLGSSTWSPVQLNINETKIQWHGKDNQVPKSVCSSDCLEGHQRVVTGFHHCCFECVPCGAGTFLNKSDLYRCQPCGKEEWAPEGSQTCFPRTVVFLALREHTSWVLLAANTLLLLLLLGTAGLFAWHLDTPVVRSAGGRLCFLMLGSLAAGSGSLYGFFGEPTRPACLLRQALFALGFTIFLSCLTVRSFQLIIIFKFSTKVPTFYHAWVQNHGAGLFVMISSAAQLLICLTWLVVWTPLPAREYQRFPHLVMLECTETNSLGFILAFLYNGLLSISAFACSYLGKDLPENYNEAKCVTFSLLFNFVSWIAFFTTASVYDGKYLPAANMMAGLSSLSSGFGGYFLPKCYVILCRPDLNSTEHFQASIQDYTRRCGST
T2 sequence (Q923K1 21-858 partner): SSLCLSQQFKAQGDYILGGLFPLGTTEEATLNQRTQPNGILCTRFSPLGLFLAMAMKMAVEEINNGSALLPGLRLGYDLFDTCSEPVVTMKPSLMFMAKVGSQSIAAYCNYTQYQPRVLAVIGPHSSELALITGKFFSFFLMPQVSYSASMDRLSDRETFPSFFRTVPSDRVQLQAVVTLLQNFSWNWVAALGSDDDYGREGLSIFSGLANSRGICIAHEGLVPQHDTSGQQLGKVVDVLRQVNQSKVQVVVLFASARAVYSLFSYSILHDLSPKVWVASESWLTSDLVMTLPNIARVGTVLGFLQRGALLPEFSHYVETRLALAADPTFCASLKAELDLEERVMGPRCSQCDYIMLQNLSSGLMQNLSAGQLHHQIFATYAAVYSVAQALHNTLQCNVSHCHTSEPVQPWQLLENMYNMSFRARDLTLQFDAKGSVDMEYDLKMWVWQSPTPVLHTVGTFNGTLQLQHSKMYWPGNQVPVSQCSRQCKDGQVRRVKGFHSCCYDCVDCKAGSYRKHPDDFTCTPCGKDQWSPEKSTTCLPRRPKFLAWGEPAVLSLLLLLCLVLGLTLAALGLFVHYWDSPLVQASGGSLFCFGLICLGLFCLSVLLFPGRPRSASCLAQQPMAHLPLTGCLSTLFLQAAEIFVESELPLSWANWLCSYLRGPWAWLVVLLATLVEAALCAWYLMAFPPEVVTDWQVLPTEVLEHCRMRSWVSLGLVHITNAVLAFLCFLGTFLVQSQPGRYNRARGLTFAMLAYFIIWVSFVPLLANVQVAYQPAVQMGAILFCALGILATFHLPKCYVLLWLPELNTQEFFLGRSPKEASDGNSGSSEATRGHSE

CaSR = conditions: ref Ohsu et al., 2010; cited from earlier work
TAS1R1/TAS1R3 = conditions: ref Broadhead et al., 2011; Servant & Frerot, 2022; cited from earlier work

T1 sequence (Q7RTX1 21-841 D192E, one chain of several): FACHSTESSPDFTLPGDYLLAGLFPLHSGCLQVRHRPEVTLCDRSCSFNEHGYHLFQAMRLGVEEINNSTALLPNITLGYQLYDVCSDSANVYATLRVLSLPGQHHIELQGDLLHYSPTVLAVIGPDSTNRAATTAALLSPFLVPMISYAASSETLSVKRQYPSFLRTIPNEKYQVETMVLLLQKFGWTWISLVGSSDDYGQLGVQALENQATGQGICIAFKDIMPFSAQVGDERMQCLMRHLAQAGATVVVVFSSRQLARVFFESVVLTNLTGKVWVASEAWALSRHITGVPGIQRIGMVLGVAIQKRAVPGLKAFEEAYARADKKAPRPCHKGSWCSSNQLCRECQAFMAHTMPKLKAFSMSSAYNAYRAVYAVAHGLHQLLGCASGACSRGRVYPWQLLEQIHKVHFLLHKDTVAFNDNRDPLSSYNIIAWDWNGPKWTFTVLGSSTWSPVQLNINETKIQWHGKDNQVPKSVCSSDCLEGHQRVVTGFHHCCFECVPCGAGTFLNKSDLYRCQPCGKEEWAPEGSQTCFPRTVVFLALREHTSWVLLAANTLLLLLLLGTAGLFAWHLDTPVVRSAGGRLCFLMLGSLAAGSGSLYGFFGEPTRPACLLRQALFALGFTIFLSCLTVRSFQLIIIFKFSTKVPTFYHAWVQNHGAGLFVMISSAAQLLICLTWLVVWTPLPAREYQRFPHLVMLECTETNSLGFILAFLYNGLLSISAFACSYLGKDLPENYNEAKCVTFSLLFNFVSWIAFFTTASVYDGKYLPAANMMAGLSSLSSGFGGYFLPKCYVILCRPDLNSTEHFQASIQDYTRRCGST

With `N[C@@H](CCC(=O)N[C@@H](CS)C(=O)NCC(=O)O)C(=O)O` [GSH, γ-L-glutamyl-L-cysteinyl-glycine] the EC50 (hTAS1R1 D192E/rTAS1R3) was > 30 mM, the EC50 (hTAS1R1 Q278A/rTAS1R3) was 3.42 ± 0.073 mM and the “effect of the added compound (1 mM) on the response to L-Glu” value (hTAS1R1 Q278A/rTAS1R3; Q278A) was “synergy was observed”. For the same molecule, the “response to the agonist alone, vs WT” value (hTAS1R1 Q278A/rTAS1R3; Q278A) was “significantly increased the initial amplitude”, the “Max ∆F/F0” value (hTAS1R1 Q278A/rTAS1R3; Q278A, GSH) was 1.46 ± 0.01 and the “R1 = mutant EC50/WT EC50” value (hTAS1R1 Q278A/rTAS1R3; Q278A, GSH) was 1.4. For the same molecule, the EC50 (CaSR) was 0.00071 mM and the EC50 (TAS1R1/TAS1R3) was 11.3 mM.
